In brackets after ≈: the same amount, converted by molar mass. Several values for one entry are separate records, joined by “and”; a condition that tells them apart may be missing. Equal entries are not always repeated. Where two headings read alike, the source gives them in different places.
Tests used:
eight fungal strains = test: In vitro antifungal screening, overall verdict; assay type: cell-based; conditions: especially against Candida albicans ATCC 44859
Method: (§1) The broth microdilution test was used for the assessment of in vitro antifungal activity of the synthesized compounds against Candida albicans ATCC 44859 (CA), Candida tropicalis 156 (CT), Candida krusei ATCC 6258 (CK), Candida glabrata 20/I (CG), Trichosporon beigelii 1188 (TB), Aspergillus fumigatus 231 (AF), Absidia corymbifera 272 (AC), and Trichophyton mentagrophytes 445 (TM). Fluconazole (FLU) was used as the standard of a clinically used antimycotic drug. The procedure was performed with twofold dilution of the compounds in RPMI 1640 (Sevapharma a.s., Prague, Czech Republic) buffered to pH 7.0 with 0.165 mol of 3-morpholino-propane-1-sulfonic acid (MOPS, Sigma, Germany). The final concentrations of the compounds ranged from 500 to 0.975 μmol/l. Drug–free controls were included. The MIC was defined as an 80% or greater (IC80) reduction of growth in comparison with the control. The values of MICs were determined after 24 and 48 h of static incubation at 35 °C. For T. mentagrophytes, the final MICs were determined after 72 and 120 h of incubation.

[1] = test system: Trichosporon beigelii 1188; test: In vitro antifungal broth microdilution test; assay type: cell-based; conditions: RPMI 1640, pH 7.0, 35 °C; for MIC: Trichosporon beigelii, 1188, read-out: MIC/IC80 TB
Method: as §1

spinach chloroplasts [2] = test: Inhibition of oxygen evolution rate (OER) / photosynthetic electron transport in spinach chloroplasts; assay type: biochemical, Spinacia oleracea L.; conditions: for IC50: DCPIP photoreduction, pH 7.2
Method: Chloroplasts were prepared from spinach (Spinacia oleracea L.) according to Masarovicova and Kralova. The inhibition of photosynthetic electron transport (PET) in spinach chloroplasts was determined spectrophotometrically (Genesys 6, Thermo Scientific, U.S.A.) using an artificial electron acceptor 2,6-dichlorophenol-indophenol (DCPIP) according to Kralova et al. and the rate of photosynthetic electron transport was monitored as a photoreduction of DCPIP. The measurements were carried out in phosphate buffer (0.02 mol/L, pH 7.2) containing sucrose (0.4 mol/L), MgCl2 (0.005 mol/L) and NaCl (0.015 mol/L). The chlorophyll content was 30 mg/L in these experiments and the samples were irradiated (~100 W/m^2) from 10 cm distance with a halogen lamp (250 W) using a 4 cm water filter to prevent warming of the samples (suspension temperature 22 °C). The studied compounds were dissolved in DMSO due to their limited water solubility. […] The inhibitory efficiency of the studied compounds was expressed by IC50 values, i.e. by molar concentration of the compounds causing 50% decrease in the oxygen evolution rate relative to the untreated control.

[3] = Lipophilicity HPLC determination (capacity factor k / log k); assay type: physicochemical; conditions: RP-HPLC, C18 column, MeOH 55.0% / H2O 45.0%, isocratic
Method: Hydrophobicities (log P/Clog P values) of the compounds 1-12 were calculated using two commercially available programs and also measured by means of the reversed phase high performance liquid chromatography (RP-HPLC) method for lipophilicity measurement. The procedure was performed under isocratic conditions with methanol as an organic modifier in the mobile phase using an end-capped non-polar C18 stationary RP column. The capacity factors k were determined and subsequent log k values were calculated.
The HPLC separation module Waters Alliance 2695 XE and Waters Photodiode Array Detector 2996 (Waters Corp., Milford, MA, U.S.A.) were used. A Symmetry® C18 5 μm, 4.6 × 250 mm, Part No. WAT054275, (Waters Corp., Milford, MA, U.S.A.) chromatographic column was used. The HPLC separation process was monitored by Millennium32® Chromatography Manager Software, Waters 2004 (Waters Corp., Milford, MA, U.S.A.). The mixture of MeOH p.a. (55.0%) and H2O-HPLC – Mili-Q Grade (45.0%) was used as a mobile phase. The total flow of the column was 0.9 mL/min, injection 30 μL, column temperature 30 °C and sample temperature 10 °C. The detection wavelength 210 nm was chosen. The KI methanolic solution was used for the dead time (TD) determination. Retention times (tR) were measured in minutes. The capacity factors k were calculated using the Millennium32® Chromatography Manager Software according to formula k = (tR - tD) / tD, where tR is the retention time of the solute, whereas tD denotes the dead time obtained via an unretained analyte. Log k, calculated from the capacity factor k, is used as the lipophilicity index converted to log P scale.

[4] = test system: Trichophyton mentagrophytes 445; test: In vitro antifungal broth microdilution test; assay type: cell-based; conditions: for MIC/IC80 TM / MIC: RPMI 1640, pH 7.0, 35 °C; for MIC: Trichophyton mentagrophytes, 445, read-out: MIC/IC80 TM
Method: (§2) Fluconazole (FLU) was used as the standard of a clinically used antimycotic drug. The procedure was performed with twofold dilution of the compounds in […]., Prague, Czech Republic) buffered to pH 7.0 with 0.165 mol of 3-morpholino-propane-1-sulfonic acid (MOPS, Sigma, Germany). […] Drug-free controls were included. The MIC was defined as an 80% or greater (IC80) reduction of growth in comparison with the control.

Candida glabrata 20/I = test: In vitro antifungal broth microdilution test; assay type: cell-based; conditions: for MIC/IC80 CG / MIC: RPMI 1640, pH 7.0, 35 °C; for MIC: Nakaseomyces glabratus, 20/I, read-out: MIC/IC80 CG
Method: as §2

Candida krusei ATCC 6258 = test: In vitro antifungal broth microdilution test; assay type: cell-based; conditions: RPMI 1640, pH 7.0, 35 °C; for MIC: Pichia kudriavzevii, ATCC6258, read-out: MIC/IC80 CK
Method: as §2

Absidia corymbifera 272 = test: In vitro antifungal broth microdilution test; assay type: cell-based; conditions: RPMI 1640, pH 7.0, 35 °C; for MIC: Lichtheimia corymbifera, 272, read-out: MIC/IC80 AC
Method: as §2

[5] = test system: Aspergillus fumigatus 231; test: In vitro antifungal broth microdilution test; assay type: cell-based; conditions: RPMI 1640, pH 7.0, 35 °C; for MIC: Aspergillus fumigatus, 231, read-out: MIC/IC80 AF
Method: as §2

[6] = test system: Candida albicans ATCC 44859; test: In vitro antifungal broth microdilution test; assay type: cell-based; conditions: RPMI 1640, pH 7.0, 35 °C; for MIC: Candida albicans, ATCC44859, read-out: MIC/IC80 CA
Method: as §2

Candida tropicalis 156 = test: In vitro antifungal broth microdilution test; assay type: cell-based; conditions: RPMI 1640, pH 7.0, 35 °C; for MIC: Candida tropicalis, 156, read-out: MIC/IC80 CT
Method: as §2

spinach chloroplasts [7] = test system: spinach chloroplasts; design: method as in earlier work; conditions: standard, read-out: OER inhibition IC50; cited from earlier work

Row | Molecule | in vitro antifungal activity (in words) (eight fungal strains) | IC50 (spinach chloroplasts [2]) | log k [3] | MIC ([1]; 24h) | MIC ([1]; 48h) | MIC ([4]; 72h) | MIC ([4]; 120h) | MIC (Candida glabrata 20/I; 24h) | MIC (Candida glabrata 20/I; 48h) | MIC (Candida krusei ATCC 6258; 24h) | MIC (Candida krusei ATCC 6258; 48h) | MIC (Absidia corymbifera 272; 24h) | MIC (Absidia corymbifera 272; 48h) | MIC ([5]; 24h) | MIC ([5]; 48h) | MIC ([6]; 24h) | MIC ([6]; 48h) | MIC (Candida tropicalis 156; 24h) | MIC (Candida tropicalis 156; 48h) | further results
1 | 3-(4-Carboxy-3-hydroxyphenylcarbamoyl)-4-hydroxy-2-oxo-1,2-dihydroquinoline-6-carboxylic acid [Compound 12] | only a moderate activity | 321 µM | 0.0093 | – | – | – | – | – | – | – | – | – | – | – | – | – | – | – | – | MIC/IC80 TB ([1]; 24h): 125 µM; MIC/IC80 TB ([1]; 48h): >500 µM; MIC/IC80 TM ([4]; 72h): 500 µM; MIC/IC80 TM ([4]; 120h): >500 µM; MIC/IC80 CG (Candida glabrata 20/I; 24h): 125 µM; MIC/IC80 CG (Candida glabrata 20/I; 48h): 250 µM; MIC/IC80 CK (Candida krusei ATCC 6258; 24h): >500 µM; MIC/IC80 CK (Candida krusei ATCC 6258; 48h): >500 µM; MIC/IC80 AC (Absidia corymbifera 272; 24h): 500 µM; MIC/IC80 AC (Absidia corymbifera 272; 48h): >500 µM; MIC/IC80 AF ([5]; 24h): 500 µM; MIC/IC80 AF ([5]; 48h): >500 µM; MIC/IC80 CA ([6]; 24h): 62.50 µM; MIC/IC80 CA ([6]; 48h): 125 µM; MIC/IC80 CT (Candida tropicalis 156; 24h): 500 µM; MIC/IC80 CT (Candida tropicalis 156; 48h): >500 µM
2 | O=C(O)c1cc2c(O)cc(=O)[nH]c2cc1O [Compound 4, 4,7-Dihydroxy-2-oxo-1,2-dihydroquinoline-6-carboxylic acid] | only a moderate activity | 538 µM | 0.0080 | 62.5 µM (≈ 13.8 µg/mL) | > 500 µM | > 500 µM | > 500 µM | 62.5 µM (≈ 13.8 µg/mL) | 250 µM (≈ 55.3 µg/mL) | > 500 µM | > 500 µM | > 500 µM | > 500 µM | 500 µM (≈ 111 µg/mL) | > 500 µM | 15.6 µM (≈ 3.45 µg/mL) | 62.5 µM (≈ 13.8 µg/mL) | 500 µM (≈ 111 µg/mL) | > 500 µM | antifungal activity against Candida glabrata 20/I (in words) (Candida glabrata 20/I): medium activity
3 | O=C(O)c1ccc2[nH]c(=O)c(/N=N/c3cc(Cl)c([N+](=O)[O-])cc3Cl)c(O)c2c1 [Compound 8, (E)-3-[(2,5-Dichloro-4-nitrophenyl)diazenyl]-4-hydroxy-2-oxo-1,2-dihydroquinoline-6-carboxylic acid] | only a moderate activity | 126 µM | 0.6394 | 250 µM (≈ 106 µg/mL) | > 250 µM | 62.5 µM (≈ 26.4 µg/mL) | 125 µM (≈ 52.9 µg/mL) | 250 µM (≈ 106 µg/mL) | > 250 µM | 250 µM (≈ 106 µg/mL) | 250 µM (≈ 106 µg/mL) | 62.5 µM (≈ 26.4 µg/mL) | 250 µM (≈ 106 µg/mL) | 125 µM (≈ 52.9 µg/mL) | 250 µM (≈ 106 µg/mL) | 31.2 µM (≈ 13.2 µg/mL) | 125 µM (≈ 52.9 µg/mL) | 250 µM (≈ 106 µg/mL) | > 250 µM | antifungal activity against Trichophyton mentagrophytes 445 (in words) [4]: medium activity
4 | CCOC(=O)c1c(O)c2ccccc2[nH]c1=O [Compound 9, Ethyl 4-hydroxy-2-oxo-1,2-dihydroquinoline-3-carboxylate] | – | 494 µM | 0.4595 | > 500 µM | > 500 µM | > 500 µM | > 500 µM | > 500 µM | > 500 µM | > 500 µM | > 500 µM | > 500 µM | > 500 µM | > 500 µM | > 500 µM | > 500 µM | > 500 µM | > 500 µM | > 500 µM | OER inhibition effectiveness relative to compound 1 (spinach chloroplasts [2]): approximately twice as effective as compound 1
5 | O=C(O)c1c(O)c2ccccc2[nH]c1=O [Compound 10, 4-Hydroxy-2-oxo-1,2-dihydroquinoline-3-carboxylic acid] | – | 567 µM | 0.0118 | > 500 µM | > 500 µM | > 500 µM | > 500 µM | > 500 µM | > 500 µM | > 500 µM | > 500 µM | > 500 µM | > 500 µM | > 500 µM | > 500 µM | > 500 µM | > 500 µM | > 500 µM | > 500 µM | –
6 | O=C(O)c1ccc(NC(=O)c2c(O)c3cc(C(=O)O)ccc3[nH]c2=O)cc1 [Compound 11, 3-(4-Carboxyphenylcarbamoyl)-4-hydroxy-2-oxo-1,2-dihydroquinoline-6-carboxylic acid] | – | 380 µM | 0.0081 | > 500 µM | > 500 µM | > 500 µM | > 500 µM | > 500 µM | > 500 µM | > 500 µM | > 500 µM | > 500 µM | > 500 µM | > 500 µM | > 500 µM | > 500 µM | > 500 µM | > 500 µM | > 500 µM | –
7 | CN(C)C(=O)Nc1ccc(Cl)c(Cl)c1 [DCMU, 3-(3,4-dichlorophenyl)-1,1-dimethylurea] | – | – | – | – | – | – | – | – | – | – | – | – | – | – | – | – | – | – | – | IC50 (spinach chloroplasts [7]): ~1.9 µM and 1.9 µM

Reference: article PMC6253998, “Ring-substituted 4-Hydroxy-1H-quinolin-2-ones: Preparation and Biological Activity” (Molecules, 2009)
